These results are taken from ChEMBL document CHEMBL5634125, “Investigation of novel 5'-amino adenosine derivatives with potential anti-Zika virus activity” (Eur J Med Chem, 2023).

The source made the active and inactive calls.

The nature of data set [1]: Cmax in ICR mouse at 25 mg/kg, po administered as single dose and measured upto 24 hrs by LC-MS/MS analysis. It counts as ADME, organism-based. To be noted: in vivo.
Data set [2] has as its system Zika virus. Nature of the data set: Antiviral activity against Zika virus infected in golden hamster BHK cells assessed as inhibition of viral RNA production at stage IV pre-infected with virus for 2 hrs followed by compound addition and measured 24 hrs post infection by qRT-PCR analysis. It counts as functional, organism-based. The conditions noted are these: time 22.0 hrs. Background: Real-time PCR tracks product formation cycle by cycle.

Data set [3] deals with Zika virus. Nature of the data set: Inhibition of Zika virus NS5-RdRp at 50 uM preincubated for 20 mins followed by ATP addition and measured after 60 mins by fluorescence based assay relative to control. To be noted: time 80.0 min.
For data set [4], the system named is U-87MG ATCC. Nature of the data set: Effect on CXCL8 expression in human U87 cells infected with Zika virus at 10 uM by KEGG enrichment analysis. It counts as functional, cell-based.
Data set [5] can be described thus: Acute toxicity in A129 mouse assessed as animal death at 200 mg/kg, po measured after 2 weeks. It counts as organism-based. The conditions noted are these: in vivo, 336 h.
A short description of data set [6]: MRT in ICR mouse at 25 mg/kg, po administered as single dose and measured upto 24 hrs by LC-MS/MS analysis. The conditions noted are these: in vivo. It counts as ADME, organism-based.
The subject of data set [7] is Zika virus. The data set can be described thus: Antiviral activity against Zika virus infected in golden hamster BHK-21 cells assessed as inhibition of viral replication incubated for 72 hrs by Dual-luciferase reporter assay system. It counts as functional, organism-based. To be noted: BHK-21, 72 h. A general note: Reporter assays use an easily measured gene product as a stand-in for the process of interest.

The subject of data set [8] is Dengue virus. Nature of the data set: Antiviral activity against Dengue virus assessed as inhibition of viral RNA production at stage IV. It counts as functional, organism-based.
Data set [9] can be described thus: Acute toxicity in A129 mouse assessed as animal death at 50 mg/kg, po measured after 2 weeks. To be noted: in vivo, 336 h. The class given is organism-based.
Data set [10] relates to Zika virus. The data set can be described thus: Inhibition of Zika virus NS5-RdRp at 12.5 uM preincubated for 20 mins followed by ATP addition and measured after 60 mins by fluorescence based assay relative to control. The conditions noted are these: time 80.0 min.
Data set [11] is described as follows: Half-life in ICR mouse at 25 mg/kg, po administered as single dose and measured upto 24 hrs by LC-MS/MS analysis. The class given is ADME, organism-based. The conditions noted are these: in vivo.
Data set [12] concerns Zika virus. Nature of the data set: Antiviral activity against Zika virus SMGC-1 infected in ICR mouse assessed as survival at 1 mg/kg, ip pre-infected with virus for 4 hrs followed by once daily compound administration for 9 days and measured after 24 days relative to control. It counts as functional. The conditions noted are these: SMGC-1, 576 h, time 24 day.
Data set [13] has as its system Zika virus. The data set can be described thus: Antiviral activity against Zika virus infected in Ifnar-/- A129 mouse assessed as reduction in viral RNA in serum at 10 mg/kg, ip administered twice daily for 4 days by qRT-PCR analysis. To be noted: time 4.0 day. The class given is functional, organism-based.
In data set [14] the test system is Zika virus. Nature of the data set: Inhibition of Zika virus NS5-RdRp preincubated for 20 mins followed by ATP addition and measured after 60 mins by fluorescence based assay. The conditions noted are these: dose 3.13-50 µM, time 80.0 min.
Data set [15] can be described thus: Acute toxicity in A129 mouse assessed as animal death at 100 mg/kg, po measured after 2 weeks. The class given is organism-based. The conditions noted are these: in vivo, 336 h.
For data set [16], the system named is Zika virus. Nature of the data set: Antiviral activity against Zika virus infected in U87 cells assessed as suppression of CXCL11 expression at 10 uM by KEGG enrichment analysis. It counts as functional, organism-based.
The nature of data set [17]: AUC (0 to t) in ICR mouse at 25 mg/kg, po administered as single dose and measured upto 24 hrs by LC-MS/MS analysis. The class given is ADME, organism-based. To be noted: in vivo.
The subject of data set [18] is Zika virus. Nature of the data set: Inhibition of Zika virus NS2B-NS3 protease using Bz-Nle-Lys-Lys-Arg-AMC as substrate at 1.25 to 200 uM preincubated for 30 mins followed by substrate addition and measured after 20 mins by Real-time fluorescence based analysis. To be noted: dose 1.25-200 µM, time 50.0 min.
Data set [19] concerns Zika virus. Nature of the data set: Inhibition of Zika virus NS5 MTase activity at 50 uM by chemiluminescence-based enzymatic assay system relative to control.
Data set [20] has as its system Zika virus. Nature of the data set: Antiviral activity against Zika virus infected in golden hamster BHK cells assessed as reduction in infectious viral propagation incubated for 72 hrs by plaque reduction assay. It counts as functional, organism-based. To be noted: dose 2.5-20 µM. A general note: Plaques are areas of infected cells; plaque reduction assays count them against a control.

In data set [21] the test system is Zika virus. The data set can be described thus: Antiviral activity against Zika virus infected in infected in golden hamster BHK cells assessed as inhibition of viral RNA production at stage III incubated for 24 hrs by qRT-PCR analysis. It counts as functional, organism-based.
For data set [22], the system named is Zika virus. Nature of the data set: Antiviral activity against Zika virus infected in golden hamster BHK cells assessed as inhibition of viral replication incubated for 72 hrs by qRT-PCR analysis. It counts as functional, organism-based. To be noted: dose 2.5-20 µM.
Data set [23] is described as follows: Tmax in ICR mouse at 25 mg/kg, po administered as single dose and measured upto 24 hrs by LC-MS/MS analysis. It counts as ADME, organism-based. The conditions noted are these: in vivo.
The target in the next data set is NS5 (Zika virus) (UniProt A0A143MHK7). Nature of the data set: Binding affinity to Zika virus RdRp by SPR analysis. To be noted: dose 1.56-25 µM.
Data set [24] relates to Zika virus. Nature of the data set: Antiviral activity against Zika virus SMGC-1 infected in ICR mouse assessed as increase in body weight at 10 mg/kg, ip pre-infected with virus for 4 hrs followed by once daily compound administration for 9 days and measured at 14 to 24 days. It counts as functional, organism-based. To be noted: time 14-24 day.
For data set [25], the system named is Dengue virus. Nature of the data set: Antiviral activity against Dengue virus assessed as inhibition of viral RNA production at stage III. The class given is functional, organism-based.
Data set [26] can be described thus: Acute toxicity in po dosed ICR mouse assessed as lethal dose measured after 2 weeks. It counts as organism-based. The conditions noted are these: in vivo.
Data set [27] deals with U-87MG ATCC. The data set can be described thus: Effect on CXCL2 expression in human U87 cells infected with Zika virus at 10 uM by KEGG enrichment analysis. The class given is functional, cell-based.
In data set [28] the test system is U-87MG ATCC. The data set can be described thus: Effect on CXCL3 expression in human U87 cells infected with Zika virus at 10 uM by KEGG enrichment analysis. The class given is functional, cell-based.
For data set [29], the system named is Zika virus. Nature of the data set: Antiviral activity against Zika virus SMGC-1 infected in ICR mouse assessed as survival at 10 mg/kg, ip pre-infected with virus for 4 hrs followed by once daily compound administration for 9 days and measured after 24 days relative to control. It counts as functional. To be noted: SMGC-1, 576 h, time 24 day.
A short description of data set [30]: Inhibition of Zika virus NS5 transfected in HEK293T cells co-transfected with GLuc reporter plasmid incubated for 24 hrs by GLuc reporter assay. It counts as cell-based. To be noted: HEK-293T.
In data set [31] the test system is Zika virus. The data set can be described thus: Antiviral activity against Zika virus infected in golden hamster BHK cells assessed as inhibition of viral protein production incubated for 72 hrs by Western blot analysis. The class given is functional, organism-based. To be noted: dose 2.5-20 µM.
In data set [32] the test system is Zika virus. The data set can be described thus: Antiviral activity against Zika virus infected in golden hamster BHK cells assessed as inhibition of virus induced cytopathic effect incubated for 6 to 8 days by CellTiter-Glo luminescent cell viability assay. The class given is functional, organism-based.

In the case of `O[C@@H]1[C@H](O)[C@@H](CNCc2ccc(C(F)(F)F)cc2)O[C@H]1n1cnc2c(NCc3cccc(Cl)c3)ncnc21`, in data set [1], the highest level (Cmax) was 699 ng/mL. Besides, the outcome in the data set on Zika virus [2], with Dengue virus [8], in the data set on Zika virus [13], with Zika virus [16], with Zika virus [21] and in the data set on Zika virus [24] was Active. For the same compound, the result with Dengue virus [25] was Active. In addition, the inhibition was 62.4% with Zika virus [3], 17.5% in the data set on Zika virus [10], “Dose-Dependent Effect” with Zika virus [14] and 20.5% in the data set with Zika virus [19]. Besides, the outcome in the data set with U-87MG ATCC [4], in the data set on U-87MG ATCC [27] and in the data set on U-87MG ATCC [28] was inactive. Also, the Activity entry was “Non-Toxic” in data set [5]; “Non-Toxic” in data set [9]; “Non-Toxic” in [15]; “Dose-Dependent Effect” in the data set with Zika virus [20]; “Dose-Dependent Effect” with Zika virus [22]; “Dose-Dependent Effect” on NS5 (Zika virus). Besides, in the data set on Zika virus [31], the Activity result is “Dose-Dependent Effect”. The compound also displayed an MRT in [6] of 3.82 h. Further, the IC50 is 5270 nM in the data set with Zika virus [7], 8780 nM in data set [30] and 2150 nM in the data set with Zika virus [32]. The compound further had a half-life in data set [11] of 2.46 h. For the same compound, in the data set with Zika virus [12], the survival at 1 mg/kg came to 30%. In [17], this compound showed an AUC(0-t) at 24 h of 2220 ng·h/mL. In addition, the inhibition result in the data set with Zika virus [18] is “inactive”. Further, in data set [23], the Tmax amounted to 0.42 h. Moreover, in data set [26], the LD50 at 336 h is greater than 200 mg/kg. The survival at 10 mg/kg with Zika virus [29] was 70%.

For `C[C@@]1(O)[C@H](O)[C@@H](CO)O[C@H]1n1cnc2c(N)ncnc21`, the IC50 with Zika virus [7] came to 1760 nM.

In the case of `CC1CCCN(C[C@H]2O[C@@H](n3cnc4c(NCc5cccc(Cl)c5)ncnc43)[C@H](O)[C@@H]2O)C1` (stereo partly drawn), the Cmax in data set [1] is 837 ng/mL. The compound further gave an MRT in [6] of 3.95 h. The Activity result in [9] and in [15] was “Non-Toxic” throughout. This compound gave a half-life in data set [11] of 3.56 h. This compound gave an AUC(0-t) at 24 h in data set [17] of 2910 ng·h/mL. Moreover, the Tmax in data set [23] is 0.5 h. In addition, the LD50 at 336 h in [26] was greater than 200 mg/kg. In the data set on Zika virus [32], the half-maximal inhibitory concentration (IC50) stood at 1400 nM.

The Cmax is the highest concentration seen after dosing. A word on the inhibition: it is the percentage by which the read-out fell short of the control. The term MRT denotes a mean duration of stay, worked out from the concentration-time curve. Broadly, the IC50 is the concentration at which inhibition is half-maximal. Usually half-life stands for the time needed for the level to fall by half in the phase considered. Low readings indicate fast loss, high ones slow loss. What is called AUC(0-t) is the area under the concentration-time curve up to a stated or last time point. The Tmax is the time at which the peak concentration occurs. In general, LD50 refers to the dose expected to kill half of the subjects tested.
